Reference: US12723063B2, “GIPR-agonist compounds” (Eli Lilly and Company, priority 2019, dated 2026)
*1 amine or outer side, *2 acyl side, *3 side chain or, on linkers, in order; H or OH if unused. Where a SMILES comes first, the peptide text is derived from it. Side-chain parts run from the residue outwards. [ ]: non-standard residue; d: D form. The star is where a group is joined. C20 diacid = O=C(O)CCCCCCCCCCCCCCCCCCC(=O)*; αMePhe(2-F) = C[C@](N)(Cc1ccccc1F)C(=O)O; γGlu = O=C(O)[C@H](CCC(=O)[*:2])N[*:1]; αMeF = C[C@](N)(Cc1ccccc1)C(=O)O; 4Pal = N[C@@H](Cc1ccncc1)C(=O)O; αMeL = CC(C)C[C@](C)(N)C(=O)O; AEEA = NCCOCCOCC(=O)O; Aib = CC(C)(N)C(=O)O

Target: T1, human GIPR (Homo sapiens, UniProt P48546)
T1 construct: expressed in transfected cells; crude membranes
T1 sequence (P48546 22-466): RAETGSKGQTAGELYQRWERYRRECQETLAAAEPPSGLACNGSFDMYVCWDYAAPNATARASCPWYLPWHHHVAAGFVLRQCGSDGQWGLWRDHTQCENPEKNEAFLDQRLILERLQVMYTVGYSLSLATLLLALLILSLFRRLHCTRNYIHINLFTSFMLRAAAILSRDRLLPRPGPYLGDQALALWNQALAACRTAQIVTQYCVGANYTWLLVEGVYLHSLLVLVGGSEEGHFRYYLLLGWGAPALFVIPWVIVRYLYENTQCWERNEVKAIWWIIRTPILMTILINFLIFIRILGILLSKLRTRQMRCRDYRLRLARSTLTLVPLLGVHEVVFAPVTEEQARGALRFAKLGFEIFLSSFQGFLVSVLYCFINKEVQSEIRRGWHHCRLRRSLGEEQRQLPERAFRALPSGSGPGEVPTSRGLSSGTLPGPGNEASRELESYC
Test: [125I]-GIP binding, SPA with WGA beads, 0.1% bacitracin
Conditions: geometric mean, read-out: hGIPR Ki
How it was run: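 Ki values are geometric means (SEM, n independent days), derived from four-parameter nonlinear regression of IC50. Membranes came from hGIPR-expressing CHO cells.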

Row | SMILES | Ki
1 | CC[C@H](C)[C@H](NC(=O)[C@H](CO)NC(=O)[C@H](Cc1ccc(O)cc1)NC(=O)[C@H](CC(=O)O)NC(=O)[C@H](CO)NC(=O)[C@@H](NC(=O)[C@](C)(Cc1ccccc1)NC(=O)[C@@H](NC(=O)CNC(=O)[C@H](CCC(=O)O)NC(=O)C(C)(C)NC(=O)[C@@H](N)Cc1ccc(O)cc1)[C@@H](C)O)[C@@H](C)CC)C(=O)N[C@@](C)(CC(C)C)C(=O)N[C@@H](CC(C)C)C(=O)N[C@@H](CC(=O)O)C(=O)N[C@@H](CCCCN)C(=O)N[C@@H](CCCCNC(=O)COCCOCCNC(=O)COCCOCCNC(=O)CC[C@H](NC(=O)CCCCCCCCCCCCCCCCCCC(=O)O)C(=O)O)C(=O)N[C@@H](Cc1c[nH]cn1)C(=O)N[C@@H](CCC(N)=O)C(=O)NC(C)(C)C(=O)N[C@@H](CCC(=O)O)C(=O)N[C@@H](Cc1ccccc1)C(=O)N[C@H](C(=O)N[C@@H](CCC(=O)O)C(=O)N[C@@H](Cc1ccncc1)C(=O)N[C@@H](CC(C)C)C(=O)N[C@@H](CC(C)C)C(=O)N[C@@H](C)C(=O)N[C@@H](CCC(N)=O)C(=O)NCC(=O)N1CCC[C@H]1C(=O)N[C@@H](CO)C(=O)N[C@@H](CO)C(=O)NCC(=O)N[C@@H](C)C(=O)N1CCC[C@H]1C(=O)N1CCC[C@H]1C(=O)N1CCC[C@H]1C(=O)N[C@@H](CO)C(N)=O)C(C)C [Example 60] (H-Y[Aib]EGT[αMeF]ISDYSI[αMeL]LDKK([AEEA-AEEA-γGlu-C20 diacid])HQ[Aib]EFVE[4Pal]LLAQGPSSGAPPPS-NH2) | 0.039 nM
2 | CC[C@H](C)[C@H](NC(=O)[C@H](CO)NC(=O)[C@H](Cc1ccc(O)cc1)NC(=O)[C@H](CC(=O)O)NC(=O)[C@H](CO)NC(=O)[C@@H](NC(=O)[C@](C)(Cc1ccccc1F)NC(=O)[C@@H](NC(=O)CNC(=O)[C@H](CCC(=O)O)NC(=O)C(C)(C)NC(=O)[C@@H](N)Cc1ccc(O)cc1)[C@@H](C)O)[C@@H](C)CC)C(=O)N[C@@H](C)C(=O)N[C@@H](CC(C)C)C(=O)N[C@@H](CC(=O)O)C(=O)N[C@@H](CCCCN)C(=O)N[C@@H](CCCCNC(=O)COCCOCCNC(=O)COCCOCCNC(=O)CC[C@H](NC(=O)CCCCCCCCCCCCCCCCCCC(=O)O)C(=O)O)C(=O)N[C@@H](Cc1c[nH]cn1)C(=O)N[C@@H](CCC(N)=O)C(=O)NC(C)(C)C(=O)N[C@@H](CC(=O)O)C(=O)N[C@@H](Cc1ccccc1)C(=O)N[C@H](C(=O)N[C@@H](CCC(=O)O)C(=O)N[C@@H](Cc1c[nH]c2ccccc12)C(=O)N[C@@H](CC(C)C)C(=O)N[C@@H](CC(C)C)C(=O)N[C@@H](CCC(=O)O)C(=O)N[C@H](C(=O)NCC(=O)N1CCC[C@H]1C(=O)N[C@@H](CO)C(=O)N[C@@H](CO)C(=O)NCC(=O)N[C@@H](C)C(=O)N1CCC[C@H]1C(=O)N1CCC[C@H]1C(=O)N1CCC[C@H]1C(=O)N[C@@H](CO)C(N)=O)[C@@H](C)O)C(C)C [Example 40] (H-Y[Aib]EGT[αMePhe(2-F)]ISDYSIALDKK([AEEA-AEEA-γGlu-C20 diacid])HQ[Aib]DFVEWLLETGPSSGAPPPS-NH2) | 0.0594 nM
